{
  "source": "paper PMC11089243",
  "about": "“The first selective VAP-1 inhibitor in China, TT-01025-CL: safety, tolerability, pharmacokinetics, and pharmacodynamics of single- and multiple-ascending doses” (Frontiers in Pharmacology, 2024)",
  "origin": "cited, not measured here",
  "key": {"[1]": {"design": "method as in NASH, 2022", "conditions": "ref NASH, 2022"}, "[2]": {"tested_on": "monoamine oxidase-B in the brain", "design": "method as in NASH, 2022", "conditions": "NASH patients; inhibition of monoamine oxidase-B in the brain; ref NASH, 2022"}},
  "data": [
    {"smiles": "CC(C)(C)NC(=O)c1ccc(OC/C(=C/F)CN)cc1.Cl", "note": "[BI 1467335]", "values": [
      {"measurement": "brain penetration (in words)", "setting": "[1]", "value": "high brain penetration"},
      {"measurement": "finding of phase I study leading to suspension of development", "setting": "[2]", "value": "risk of drug interactions"}
    ]}
  ]
}
